# Measurements published in US20060058296A1, “Treatment of osteolytic lesions associated with multiple myeloma by inhibition of p38 map kinase” (Scios, Inc., priority 2003, published 2006).
# Counter-ions that a name gives are not always drawn.
# Experiments:
# VEGF = VEGF secretion from MM contact-activated BMSC; assay type: cell-based, human
# Description: p38 MAPK controls secretion of these factors in-vitro in systems representing the BM milieu.
# In addition to promoting vascularization, VEGF is a growth-supporting factor for MM cells. Neovascularization of MM tumors in the marrow allows growth beyond diffusion limitations for gas and nutrient exchange. VEGF is secreted from MM contact-activated BMSC, and this secretion is inhibited by p38 MAPK inhibitor Compound 4 (FIG. 10).
# [1] = test system: osteolytic lesions associated with multiple myeloma; assay: Treatment of a patient with osteolytic lesions associated with multiple myeloma; assay type: in vivo, human; conditions: therapeutic amount
# Description: A patient is diagnosed with multiple myeloma and presents with a number of holes or osteolytic lesions. The osteolytic lesions are caused by the rapid growth of myeloma cells, which displace osteoblasts, and disrupting the balance of bone creation and destruction. […] Osteoblast activity is increased relative to osteoclast activity. Pain from bone destruction, fracture and the like is reduced. The osteolytic lesions are caused by the rapid growth of myeloma cells, which displace osteoblasts, and disrupting the balance of bone creation and destruction. […] Osteoblast activity is increased relative to osteoclast activity. Pain from bone destruction, fracture and the like is reduced.
# COX-2 enzyme = biological target: T1, COX-2 enzyme (Homo sapiens, UniProt P35354); assay: Activity of purified COX-2 enzyme; assay type: biochemical
# T1 sequence (P35354 18-604): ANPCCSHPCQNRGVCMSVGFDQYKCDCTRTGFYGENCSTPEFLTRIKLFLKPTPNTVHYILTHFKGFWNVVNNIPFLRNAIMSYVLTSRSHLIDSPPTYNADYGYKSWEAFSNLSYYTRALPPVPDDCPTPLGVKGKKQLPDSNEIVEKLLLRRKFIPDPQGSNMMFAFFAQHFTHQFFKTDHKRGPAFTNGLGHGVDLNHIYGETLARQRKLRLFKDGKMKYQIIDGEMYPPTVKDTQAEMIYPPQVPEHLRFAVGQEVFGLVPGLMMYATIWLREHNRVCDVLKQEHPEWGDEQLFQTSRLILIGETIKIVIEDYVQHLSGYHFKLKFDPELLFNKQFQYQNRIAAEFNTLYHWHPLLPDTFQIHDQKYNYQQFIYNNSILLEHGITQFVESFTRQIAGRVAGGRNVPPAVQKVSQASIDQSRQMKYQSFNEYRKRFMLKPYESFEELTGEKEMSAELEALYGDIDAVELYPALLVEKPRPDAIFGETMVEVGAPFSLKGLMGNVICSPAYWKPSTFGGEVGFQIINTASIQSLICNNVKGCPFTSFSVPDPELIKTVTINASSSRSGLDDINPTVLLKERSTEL
# RPMI = assay: MM cell proliferation, RPMI; assay type: cell-based; conditions: 72-hour exposure
# IL-1β = assay: LPS-induced IL-1β release in human whole blood; assay type: cell-based; conditions: human whole blood (undiluted)
# Description: IL-1β illustrates the importance of amplification loops in myeloma-induced cytokine stimulation. IL-1β plays a well-documented role in the induction of multiple cytokines in a “cytokine network” of feedback loops, including strong induction of IL-6. The ability of IL-1 to increase mRNA expression and induce secretion of the MM-relevant cytokines from MM/BMSC cultures is evidence of this role.
# U266B = assay: MM cell proliferation, U266B; assay type: cell-based; conditions: 72-hour exposure
# BMSC = BMSC viability, MTS assay of respiratory activity; assay type: cell-based, human; conditions: tested up to 50-fold excess of active concentration
# Procedure: Neither p38 MAPK inhibition nor high concentrations of p38 MAPK inhibitor (tested up to 50-fold excess of active concentration) affected BMSC viability (FIG. 4). Viability was measured using a standard enzymatic assay of respiratory activity, MTS (3-(4,5-dimethylthiazol-2-yl)-5-(3-carboxymethoxyphenyl)-2-(4-sulfophenyl)-2H-tetrazolium). Results obtained with the p38 MAPK inhibitor are in agreement with published results using a different p38α MAPK inhibitor.
# [2] = test system: arthritic lesions in the hind paws; assay: Chick type II collagen arthritis in rats with established disease; assay type: in vivo, rat
# Procedure: Rats treated intradermally with chick type II collagen develop arthritic lesions in the hind paws similar to human arthritic joints with respect to accumulation of pannus tissue, presence of inflammatory cells, and increased expression of inflammatory cytokines. […] Animals were scored daily by an observer blinded with respect to treatment regimen. At the completion of the study on Day 28, radiographic images were analyzed in a blinded manner, based upon the extent of soft tissue swelling, joint space narrowing, and bone destruction. Animal weights at the beginning and end of the study were also recorded, as weight loss is associated with disease progression in this model.
# ARH-77 = assay: MM cell proliferation, ARH-77; assay type: cell-based; conditions: ARH-77, 72-hour exposure
# PGE2 = PGE2 levels in LPS-induced human whole blood; assay type: cell-based
# COX-1 = biological target: T2, COX-1 (Homo sapiens, UniProt P23219); assay: Activity of platelet-derived preparation of COX-1; assay type: biochemical
# T2 construct: a platelet-derived preparation of COX-1; from tissue; host or cells: platelets
# T2 sequence (P23219 24-599): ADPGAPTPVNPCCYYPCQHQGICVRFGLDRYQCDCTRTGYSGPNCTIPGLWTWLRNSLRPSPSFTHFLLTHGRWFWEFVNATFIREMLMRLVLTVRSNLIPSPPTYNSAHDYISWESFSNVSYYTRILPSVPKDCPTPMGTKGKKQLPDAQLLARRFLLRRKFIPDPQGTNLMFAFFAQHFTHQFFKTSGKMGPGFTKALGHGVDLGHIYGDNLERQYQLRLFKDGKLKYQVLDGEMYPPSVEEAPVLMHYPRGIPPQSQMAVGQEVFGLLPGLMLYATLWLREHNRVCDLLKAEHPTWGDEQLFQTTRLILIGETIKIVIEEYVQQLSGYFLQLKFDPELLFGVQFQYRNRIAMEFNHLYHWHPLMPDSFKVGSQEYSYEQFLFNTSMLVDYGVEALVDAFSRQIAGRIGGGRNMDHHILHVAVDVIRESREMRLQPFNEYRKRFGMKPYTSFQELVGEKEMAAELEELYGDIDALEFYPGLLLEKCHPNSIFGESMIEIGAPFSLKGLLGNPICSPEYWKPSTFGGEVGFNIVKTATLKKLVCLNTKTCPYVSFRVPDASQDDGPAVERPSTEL
# RANKL mRNA = RANKL mRNA in BMSC and MM/BMSC cultures; assay type: cell-based, human; conditions: 100 nM
# Procedure: In addition, 100 nM of these p38 MAPK inhibitors blocks the weaker induction of RANKL by IL-6 in BMSC.
# TNF-α = assay: LPS-induced TNF-α secretion in whole blood; assay type: cell-based, human
# Procedure: Other in vitro assays can assess the production of TNF-a as a correlation to p38 MAP kinase activity. One such example is a Human Whole Blood Assay. In this assay, venous blood is collected from, e.g., healthy male volunteers into a heparinized syringe and is used within 2 hours of collection. Test compounds are dissolved in 100% DMSO and 1 μl aliquots of drug concentrations ranging from 0 to 1 mM are dispensed into quadruplicate wells of a 24-well microtiter plate (Nunclon Delta SI, Applied Scientific Co., San Francisco, Calif.). Whole blood is added at a volume of 1 ml/well and the mixture is incubated for 15 minutes with constant shaking (Titer Plate Shaker, Lab-Line Instruments, Inc., Melrose Park, Ill.) at a humidified atmosphere of 5% CO2 at 37° C. Whole blood is cultured either undiluted or at a final dilution of 1:10 with RPMI 1640 (Gibco 31800+NaHCO3, Life Technologies, Rockville, Md. and Scios, Inc., Sunnyvale, Calif.). At the end of the incubation period, 10 μl of LPS (E. coli 0111:B4, Sigma Chemical Co., St. Louis, Mo.) is added to each well to a final concentration of 1 or 0.1 μg/ml for undiluted or 1:10 diluted whole blood, respectively. The incubation is continued for an additional 2 hours. The reaction is stopped by placing the microtiter plates in an ice bath, and plasma or cell-free supernates are collected by centrifugation at 3000 rpm for 10 minutes at 4° C. […]
# MIP-1α = MIP-1α production in MM/BMSC co-cultures; assay type: cell-based, human
# Description: MIP-1α elevation in MM patient serum correlates with disease severity. Unlike many MM-relevant cytokines present in the marrow microenvironment, which are produced mainly by the activated BMSC, MM cells are the primary source of MIP-1α. IL-1 further induces MIP-1α production.
# [3] = test system: human myeloma (RPM18266) tumor; assay: Human myeloma xenograft plasmacytoma model in beige-nude-xid mouse; assay type: in vivo
# Procedure: The p38 MAPK signaling pathway plays an important role in different pathological conditions and specific inhibitors of p38 alpha and beta MAPK block production of the major inflammatory cytokines. Human multiple myeloma (MM) is an incurable neoplasm of terminally differentiated B cells and MM disease progression is affected by immunoregulatory elements such as IL-6 and other cytokines. […] Treatment (90 mg/kg/bid by oral gavage) is initiated in mice with palpable tumor size (˜200 mm^3) as judged by tumor volume.
# COX-2 mRNA = assay: LPS-induced COX-2 mRNA; assay type: cell-based, human
# IM9 = assay: MM cell proliferation, IM9; assay type: cell-based; conditions: IM9, 72-hour exposure
# [4] = test system: primary murine marrow derived osteoclast precursors; assay: Osteoclast differentiation, primary murine marrow derived osteoclast precursors; assay type: cell-based; conditions: di-hydroxy vitamin D induced differentiation; for mature osteoclast formation: 100 nM; for mature osteoclast formation prevented: increasing doses
# Procedure: Inhibition of p38α MAPK prevented osteoclast differentiation in two types of standard in vitro models. In the first, primary murine marrow derived osteoclast precursors are cultured in the presence of di-hydroxy vitamin D to induce differentiation. […] In the second model, primary human marrow-derived osteoclast precursors are cultured in the presence of dihydroxy vitamin D [(OH)2D3] to induce differentiation. In both cases, 100 nM of the exemplary p38 MAPK inhibitors prevents osteoclast formation as measured by tartrate resistant acid phosphatase (TRAP) staining or by staining with 23c6 (a mature osteoclast cell surface marker)(FIG. 14).
# IL-11 = assay: IL-1 and TGFβ induction of IL-11 in BMSC and MM/BMSC cultures; assay type: cell-based, human; conditions: 100 nM
# Description: p38 MAPK controls secretion of these factors in-vitro in systems representing the BM milieu. […] IL-11 elicits pro-fibrotic responses and promotes osteoclast-driven bone resorption.
smiles,measurement,setting,value
COC(=O)C(=O)c1cn(C(=O)c2ccc(Cl)cc2)c2cc(OC)c(C(=O)N3CCC(Cc4ccccc4)CC3)cc12 [Compound 4],VEGF secretion,VEGF,inhibited
C[C@@H]1CN(Cc2ccc(F)cc2)[C@@H](C)CN1C(=O)c1cc2c(C(=O)C(=O)N(C)C)cn(C)c2cc1Cl [Compound 57 hydrochloride salt],"pain from bone destruction, fracture and the like",[1],reduced
C[C@@H]1CN(Cc2ccc(F)cc2)[C@@H](C)CN1C(=O)c1cc2c(C(=O)C(=O)N(C)C)cn(C)c2cc1Cl [Compound 57],activity of the purified COX-2 enzyme,COX-2 enzyme,did not directly inhibit
same,reduction in proliferation,RPMI,about 20%
same,LPS-induced IL-1β release,IL-1β,dose-dependent reduction
same,reduction in proliferation,U266B,about 20%
same,BMSC viability,BMSC,Neither p38α MAPK inhibition nor high concentrations of Compound 57 (tested up to 50-fold excess of active concentration) affected BMSC viability
same,clinical score,[2]; 10 mg/kg orally once a day,intermediate between the vehicle and 40 mg/kg groups
same,clinical score,"[2]; 40 mg/kg orally once a day, from third day of treatment to Day 28, vs vehicle",statistically significant improvement
same,reduction in proliferation,ARH-77,about 20%
same,PGE2 levels,PGE2,reduced
same,activity of a platelet-derived preparation of COX-1,COX-1,nor did it inhibit
same,basal expression of RANKL mRNA,RANKL mRNA,blocked
same,RANKL mRNA induction by TGFβ and IL-1,RANKL mRNA; BMSC cultures,blocked
same,induction of RANKL by IL-6,RANKL mRNA; BMSC,blocks
same,RANKL mRNA induction by TGFβ and IL-1,RANKL mRNA; MM/BMSC cultures,blocked
same,LPS-induced TNF-α secretion,TNF-α,dose-dependent reduction
same,IL-1-induced production of MIP-1α,MIP-1α,substantially reduce
same,untreated production of MIP-1α,MIP-1α,substantially reduce
same,HSP27 expression in tumor cells,"[3]; mouse, in vivo",significantly reduce
same,p38 expression in tumor cells,"[3]; mouse, in vivo",significantly reduce
same,tumor volume,"[3]; palpable tumors (~200 mm^3), 90 mg/kg/bid oral gavage, 21 days",significantly reduced
same,tumor volume,[3]; treatment initiated at pronounced tumor size (~800 mm^3),significant reduction
same,"number of neoformed microvessels, histological assessment",[3]; vs vehicle,significant reduction
same,"tumor volume, histological assessment at the end of dosing",[3]; vs vehicle,significant reduction
same,LPS-induced COX-2 mRNA,COX-2 mRNA,inhibited
same,reduction in proliferation,IM9,about 20%
same,mature osteoclast formation,[4],complete blockage
same,mature osteoclast formation prevented,[4],in a dose dependent manner
same,IL-1 and TGFβ induction of IL-11 at the mRNA and protein levels,IL-11; BMSC cultures,blocked
same,IL-1 and TGFβ induction of IL-11 at the mRNA and protein levels,IL-11; MM/BMSC cultures,blocked
CN(C)C(=O)C(=O)c1c[nH]c2cc(Cl)c(C(=O)N3CCC(Cc4ccc(F)cc4)CC3)cc12 [Compound 162],mature osteoclast formation,[4],complete blockage
same,mature osteoclast formation prevented,[4],in a dose dependent manner
